The source of these data is article PMC12723204, “Mitochondrial Dysfunction Induced by a Novel Salicylate‐Based 1,2,3‐Triazole Salt With Potent Antileishmanial Activity” (Chemical Biology & Drug Design, 2025).

Series [1] deals with L. amazonensis promastigotes. As to the kind of experiment: Activity against promastigotes of L. amazonensis (MTT). The series is classed as cell-based. The settings on record: Leishmania amazonensis, 72 h, read-out: Promastigote IC50. On the procedure:
Promastigotes of L. amazonensis (IFLA/BR/67/PH8) were cultivated in brain heart infusion ([…] José dos […], Brazil) supplemented with bovine hemin (Sigma-Aldrich, St. Louis, MO, USA), folic acid (Sigma-Aldrich, St. Louis, MO, USA), inactivated fetal bovine serum (Cultilab, São Paulo, Brazil), and penicillin/streptomycin solution (Sigma-Aldrich, St. Louis, MO, USA). The cells were kept at 25°C in a BOD incubator. […] Louis, MO, USA; Mosmann [1983]). The viability of parasites was measured using a spectrophotometer (Multiskan EX-Thermo Electron Corporation, Vantaa, Finland) at 570 nm. The values were expressed as an inhibitory concentration capable of inhibiting 50% (IC50) of cell growth by using GraFit 5 software (Erithacus Software Ltda). […] Paulo, SP, Brazil) were used as reference drugs. All assays were run in triplicate across three separate trials.

Series [2] is described as follows: Cytotoxicity against mammalian cells (MTT). The series is classed as cell-based, BALB/c mice. The settings on record: BALB/c, mouse; peritoneal murine macrophages, 72 h, MTT. On the procedure:
After being prepared as previously mentioned, murine peritoneal macrophages obtained from BALB/c mice were either left untreated (negative control) or treated with the compounds (3.125–100.000 μM). Using a spectrophotometer (Multiskan EX, Thermo Electron Corporation, Vantaa, Finland) set to 570 nm, cell viability was assessed after 72 h of treatment using the MTT method (Mosmann [1983]). A cytotoxic concentration for 50% of the cell population (CC50) was used to express the results. The reference medication was miltefosine (Cayman Chemical Company, Ann Arbor, MI, USA). The assays were performed in three independent experiments in duplicate. The selectivity index was calculated by […].

The test system of series [3] is L. amazonensis intracellular amastigotes. As to the kind of experiment: Activity against intracellular amastigote forms of L. amazonensis in peritoneal macrophages (Giemsa counting). Type of series: cell-based, Leishmania amazonensis. The note with it: for IC50: Leishmania amazonensis, Peritoneal macrophage, intracellular amastigotes in murine peritoneal macrophages, 72 h; for SI (Selectivity Index): CC50 of peritoneal murine macrophages/IC50 L. amazonensis amastigotes. On the procedure: Peritoneal macrophages were obtained from BALB/c mice previously inoculated with 3% thioglycollate medium (da Trindade Granato et al. [2018]). The macrophages (2 × 10^6 cells/mL) were then allowed to adhere in 24‐well culture plates for 16 h at 37°C in a 5% CO2 atmosphere. After rinsing with phosphate‐buffered saline (PBS), the adhered macrophages were infected with stationary‐phase promastigotes of L. amazonensis at a 10:1 parasite‐to‐macrophage ratio for 4 h at 33°C. After several washes to remove non‐adherent promastigotes, the cells were either left untreated (negative control) or treated with the compounds (3.125–100.000 μM). Following a 72 h treatment period, the infected macrophages were fixed in ethanol, stained with Giemsa, and 200 macrophages were counted to determine the number of intracellular amastigotes. The GraFit software was used to determine the IC50, which was the outcome of three separate trials conducted in duplicate.

The nature of series [4]: Cytotoxicity in human red blood cells (hemolytic assay). Type of series: cell-based. The settings on record: human erythrocytes (1% suspension), 200.00 μM (maximum concentration tested). Here is the method:
Blood cells were centrifuged at 1500 rpm, the plasma and leukocytes were discarded, and the erythrocytes were washed in PBS. Then, the cells were diluted to a concentration of 1%, plated in 96‐well plates, and untreated or treated with the compound 7 at different concentrations (0.09–200.00 μM). The plate was incubated for 24 h at 37°C, and then centrifuged at 2000 rpm for 1 min. The supernatant was collected, and the absorbance (Abs) was determined in a spectrophotometer (Multiskan EX, Thermo Electron Corporation, Vantaa, Finland) at 540 nm. Untreated cells were considered the negative control. For the positive control, 0.2% saponin in deionized water was used.

In series [5] the test system is peritoneal murine macrophages. Also on record: method as in Meinel et al. ([2020]). The note with it: murine macrophage cells; ref Meinel et al. ([2020]); cited from earlier work.

`CCCCCCCCCCCCCCCCn1cc(COC(=O)c2ccccc2O)nn1` [Compound 6, (1‐Hexadecyl‐1H‐1,2,3‐Triazol‐4‐Yl)methyl 2‐Hydroxybenzoate]: the concentration for half-maximal inhibition (IC50) in series [1] and in series [3] was > 100 µM each time. Further, the CC50 at 72 h in series [2] was > 150 µM.

For `CCCCCCCCCCCCCCCCn1cc(COC(=O)c2ccccc2O)[n+](C)n1.[I-]` [Compound 11, 1‐Hexadecyl‐4‐(((2‐Hydroxybenzoyl)oxy)methyl)‐3‐Methyl‐1H‐1,2,3‐Triazol‐3‐Ium Iodide], the IC50 is 1.72 ± 0.02 µM in series [1] and 12.4 ± 1.86 µM in series [3]. The compound further displayed a CC50 at 72 h in series [2] of 4.01 ± 1.12 µM. For the same compound, the “SI (Selectivity Index)” value in series [3] is reported as 0.32.

Regarding `C[C@@H]1[C@H](O)[C@@H](C)/C=C/C=C/C=C/C=C/C=C/C=C/C=C/[C@H](O[C@@H]2O[C@H](C)[C@@H](O)[C@H](N)[C@@H]2O)C[C@@H]2O[C@](O)(C[C@@H](O)C[C@@H](O)[C@H](O)CC[C@@H](O)C[C@@H](O)CC(=O)O[C@H]1C)C[C@H](O)[C@H]2C(=O)O` [Am B, amphotericin B, reference compound], in series [2], the CC50 at 72 h was determined as 0.71 ± 0.22 µM. In series [4], this compound gave a hemolysis at 24 h, 200 µM of 95.9%. In series [3], this compound gave a 50% inhibitory concentration (IC50) of 85.8 ± 30.4 µM.

As for `CCCCCCCCCCCCCCCCOP(=O)([O-])OCC[N+](C)(C)C` [Miltefosine, reference compound], the half-inhibitory concentration (IC50) in series [1] was determined as 15.1 ± 2.08 µM; in series [3], 11.5 ± 1.79 µM. Moreover, the 50% cytotoxic concentration (CC50) at 72 h in series [2] stood at 151.81 ± 0.03 µM. For the same compound, in series [4], the hemolysis at 24 h, 200 µM was determined as 95.9%.

On to `CCCCCCCCCCCCCCn1cc(COC(=O)c2ccccc2O)nn1` [Compound 5, (1‐Tetradecyl‐1H‐1,2,3‐Triazol‐4‐Yl)methyl 2‐Hydroxybenzoate], for which the IC50 in series [1] and in series [3] was > 100 µM throughout. In addition, in series [2], the CC50 at 72 h is > 150 µM.

Consider `CCCCCCCCCCn1cc(COCC2CO2)[n+](C)n1.[I-]` (stereo not drawn) [1‐decyl‐3‐methyl‐4‐((oxiran‐2‐ylmethoxy)methyl)‐1H‐1,2,3‐triazol‐3‐ium iodide], for which the “fold lower cytotoxicity compared to its 4-hydroxy-substituted precursor” value in series [5] was “approximately 2.5 fold”.

For the compound `CCCCCCCCCCCCCCn1cc(COC(=O)c2ccccc2O)[n+](C)n1.[I-]` [Compound 10, 1‐Tetradecyl‐4‐(((2‐Hydroxybenzoyl)oxy)methyl)‐3‐Methyl‐1H‐1,2,3‐Triazol‐3‐Ium Iodide], the IC50 in series [1] came to 1.55 ± 0.34 µM. Further, the midpoint of cytotoxicity in series [2], the CC50 at 72 h, lay at 2.37 ± 0.82 µM. In addition, in series [3], the “SI (Selectivity Index)” value was determined as 0.40 and the half-inhibitory concentration (IC50) is 5.92 ± 2.24 µM.

Take `CCCCCCCCn1cc(COC(=O)c2ccccc2O)nn1` [Compound 2, (1‐Octyl‐1H‐1,2,3‐Triazol‐4‐Yl)methyl 2‐Hydroxybenzoate]: the IC50 in series [1] and in series [3] was > 100 µM in each case. In series [2], the CC50 at 72 h was > 150 µM.

As for `CCCCCCCCCCn1cc(COC(=O)c2ccccc2O)[n+](C)n1.[I-]` [Compound 8, 1‐Decyl‐4‐(((2‐Hydroxybenzoyl)oxy)methyl)‐3‐Methyl‐1H‐1,2,3‐Triazol‐3‐Ium Iodide], the values for the IC50 in series [1] and in series [3] were 1.08 ± 0.18 µM and 2.49 ± 0.5 µM, respectively. In addition, the CC50 at 72 h in series [2] worked out at 0.31 ± 0.22 µM. The “SI (Selectivity Index)” value in series [3] stood at 0.12.

As for `CCCCCCCCCCn1cc(COC(=O)c2ccccc2O)nn1` [Compound 3, (1‐Decyl‐1H‐1,2,3‐Triazol‐4‐Yl)methyl 2‐Hydroxybenzoate], the IC50 in series [1] and in series [3] was > 100 µM each time. The compound further displayed a cytotoxic concentration (CC50) at 72 h in series [2] of 70.2 ± 14.2 µM.

As to `CCCCCCCCCCCCn1cc(COC(=O)c2ccccc2O)[n+](C)n1` [Compound 9, 1‐Dodedecyl‐4‐(((2‐Hydroxybenzoyl)oxy)methyl)‐3‐Methyl‐1H‐1,2,3‐Triazol‐3‐Ium Iodide], the IC50 in series [1] amounted to 1.58 ± 0.12 µM. The compound also yielded a CC50 at 72 h in series [2] of 1.34 ± 0.32 µM. In series [3], the “SI (Selectivity Index)” value came to 0.21 and the 50% inhibitory concentration (IC50) stood at 6.31 ± 1.86 µM.

Consider `CCCCCCCCCCCCn1cc(COC(=O)c2ccccc2O)nn1` [Compound 4, (1‐Dodecyl‐1H‐1,2,3‐Triazol‐4‐Yl)methyl 2‐Hydroxybenzoate], for which the 50% inhibitory concentration (IC50) in series [1] and in series [3] was > 100 µM in each case. In addition, in series [2], the 50% cytotoxic concentration (CC50) at 72 h is > 150 µM.
